The METLIN SMRT retention time set (Domingo-Almenara et al. 2019)

Assay: gradient 5% acetonitrile 3 min, to 50% in 2 min, to 85% in 15 min, held 3 min, 100 µL/min
Details: column: Zorbax Extend-C18 2.1 x 50 mm; eluents: water / acetonitrile, 0.1% formic acid
Summary of the method: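 Pure standards were run in mixtures of ~100 molecules by HPLC coupled to a quadrupole time-of-flight mass spectrometer. The column was a Zorbax Extend-C18 (2.1 × 50 mm, 1.8 μm) at 100 μL/min, with water and acetonitrile each containing 0.1% formic acid, in positive and negative ionization mode. Dead and dwell volumes were 40 μL and 900 μL. Retention time was taken from computationally picked adduct peaks, each manually inspected, with data collected over 3 months.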

| Compound | RP-LC retention time [s] |
| --- | --- |
| O=S(=O)(c1ccc(-c2noc(-c3ccc(Cl)cc3)n2)cc1)N1CCOCC1 | 1160 |
| Cc1ccccc1C1CCCN1C(=O)c1nn(C)cc1Cl (centres undefined) | 849 |
| COc1cccc(NC(=O)c2c(C)oc3nc(C)nc(N4CCCC4)c23)c1 | 743 |
| Cc1cc(=O)oc2c3c(cc(OCC(=O)N[C@H](CC(C)C)C(=O)O)c12)OC(C)(C)CC3 | 892 |
| CCn1ccc(C(=O)N2CC(N(C3CCOCC3)S(C)(=O)=O)C2)n1 | 625 |
| O=C(Cn1ncccc1=O)N1CCN(c2ccc(-c3ccco3)nn2)CC1 | 552 |
| COc1ccc(C(=O)Nc2nc(-c3ccccc3)cs2)cc1OC | 961 |
| Cc1cc2[nH]c(C(=O)Nc3cc(F)ccc3F)c(CN3CCOCC3)c2s1 | 730 |
| CCC(C)NC(=O)CC1CCN(C(=O)c2[nH]c(C)c(C(=O)OC)c2C)CC1 (centres undefined) | 663 |
| CO[C@H]1CN(C2CCN(Cc3ccc(C)o3)CC2)[C@H]1c1ccncc1 | 588 |
| Cc1cc(C)cc(N2C(=O)N(CC(=O)N3CCC(C)CC3)C3CS(=O)(=O)CC32)c1 (centres undefined) | 816 |
| Cn1nc(C(=O)N2CCCC(C(=O)Nc3ccccc3)C2)c2c1CCN(C(=O)CCc1ccccc1)C2 (centres undefined) | 800 |
| O=C(Cn1c(=O)cc(-c2nc(C3CC3)no2)c2ccccc21)NCCc1ccc(Cl)cc1 | 1000 |
| O=C(Cn1c(=O)c2cc(C3CC3)nn2c2ncccc21)NCc1ccc(Cl)cc1 | 791 |
| Cc1nc(N2CCN(c3ncccn3)CC2)nc2c1C(=O)CC(c1ccc(F)cc1)C2 (centres undefined) | 1190 |
| CCOc1ccc(-c2cn3ccn(-c4ccc(OCC)cc4)c(=O)c3n2)cc1 | 896 |
| CCCN(CC1CCOC1)C(=O)Nc1ccc(OC)c(F)c1 (centres undefined) | 777 |
| CCOC(=O)Cn1c(C2CC(=O)N(c3ccc(Cl)cc3)C2)nc2ccccc21 (centres undefined) | 858 |
| CCC(C(=O)N1CCN(C(=O)c2ccco2)CC1)n1c2ccccc2c2cnn(C)c(=O)c21 (centres undefined) | 801 |
| CCc1ccc(OCC(=O)Nc2nnc(SCc3nnc(-c4ccccc4)o3)s2)cc1 | 1010 |

| Compound | RP-LC retention time [s] |
| --- | --- |
| CN1C(=O)c2cc(C(=O)N3CCCCCC3)nn2CC1(C)C(=O)NC1CCCC1 (centres undefined) | 714 |
| O=C(Cn1c(=O)c2cc(C3CC3)nn2c2ncccc21)Nc1cccc(Cl)c1 | 848 |
| CCn1nnc2ccc(-c3noc(-c4ccc(C)cc4)n3)cc21 | 1140 |
| CC(C)n1cnc2ccc(-c3noc(CSc4ccncc4)n3)cc21 | 565 |
| Cc1ccc(-c2ccc(-n3nc(C)c(S(=O)(=O)NCCN4CCCCC4C)c3C)nn2)cc1C (centres undefined) | 748 |
| O=C(Nc1ccc2ncnc(N3CCCC3)c2c1)c1cncc(Br)c1 | 639 |
| Cc1ccccc1Cn1cc(-c2ccncc2)cc1C(=O)N1CCOCC1 | 621 |
| O=c1ccc(-c2ccc3c(c2)OCO3)nn1Cc1nc(-c2ccc3c(c2)OCO3)no1 | 934 |
| Cc1cnc(C2CC2)n1C1CCN(C(=O)c2cccn2C)C1 (centres undefined) | 583 |
| Cc1ccc(Cn2c(=O)n(CCNC(=O)CC(C)C)c3ncccc32)cc1 | 806 |
| COCCN1C(=O)[C@H]2CN(Cc3cccc(Cl)c3F)C[C@H]2C1=O | 685 |
| Cc1nc2cc(-c3noc(C(C)Oc4ccccc4)n3)ccc2n(C2CCCC2)c1=O (centres undefined) | 1310 |
| C[C@H]1CN(C(=O)c2ccc(C#N)cc2)C[C@@H]1c1nc(-c2cccnc2)no1 | 717 |
| Cc1ccc(N2CC(c3noc(-c4ccc(C#N)cc4)n3)CC2=O)cc1 (centres undefined) | 947 |
| CCCNC(=O)C1CCN(c2ccc(SCC(=O)Nc3ccc(Cl)cc3)nn2)CC1 | 655 |
| CCCn1ccc2sc(C)c(C(=O)NCc3cc(C)ccc3C)c2c1=O | 1020 |
| Cc1ccc(CN2CCc3nc(N4CCN(c5ccccc5F)CC4)ncc3C2)s1 | 799 |
| CCc1nncn1C1CCN(C(=O)c2cc(-c3cccs3)[nH]n2)C1 (centres undefined) | 595 |
| O=C1COc2ccc(S(=O)(=O)N3CCC(C(=O)NCc4ccc5c(c4)OCO5)CC3)cc2N1 | 708 |
| COc1ccc(C(=O)N2C[C@@H]3C[C@H](NC(=O)c4ccccc4)[C@H]2C3)c(OC)c1 | 716 |

| Compound | RP-LC retention time [s] |
| --- | --- |
| COCC(CN1CCN(C2=NS(=O)(=O)c3ccccc32)CC1)OC(=O)c1ccc(C)cc1 (centres undefined) | 646 |
| CN1CCCN(C(=O)C2CC(=O)N(c3ccc4c(c3)CCN4C(=O)C3CC3)C2)CC1 (centres undefined) | 564 |
| Cc1ccc(CNC(=O)CCc2nnc3c4cc(-c5ccccc5)nn4ccn23)cc1C | 815 |
| CCOCCCNC(=O)CCCN1C(=O)CCn2nc(C)cc21 | 568 |
| Cc1nc(-c2ccc(C(=O)N3CC(=O)Nc4ccccc43)cc2)no1 | 668 |
| Cn1nc(-c2ccc(F)cc2)cc1C(=O)NCCN1CCN(C(=O)c2cccs2)CC1 | 593 |
| Cc1nn(-c2nc(CC(=O)N3CCC(C)CC3)cs2)c(C)c1Cl | 1190 |
| CCc1csc(-c2ccc(N3CCN(C(=O)c4c(F)cccc4F)CC3)nc2)n1 | 976 |
| COc1ccc2[nH]cc(CCN3CC(C(=O)Nc4cc(C)cc(C)c4)CC3=O)c2c1 (centres undefined) | 846 |
| O=C(Cn1nc(C(=O)N2CCCC2)c2ccccc21)N1CCN(c2cccc(Cl)c2)CC1 | 942 |
| Cc1ccsc1C(=O)N1CCCC2(CC1)CN(C)C(=O)O2 (centres undefined) | 661 |
| CCCN1C(=O)c2c(C(=O)NCc3ccc(OC(C)C)cc3)ncn2CC1(C)C(=O)NC1CCCC1 (centres undefined) | 923 |
| CCc1ccc(-c2cn3cc(C(=O)N4CCCN(C)CC4)ccc3n2)cc1 | 570 |
| O=C(Cn1nc2c3sc(N4CCCCC4)nc3ncn2c1=O)Nc1ccc(Cl)cc1F | 868 |
| CN(C)CCNC(=O)Cc1cccn1-c1ccc(Cl)cc1 | 618 |
| Cc1ncc2c(n1)C[C@@H]1CC[C@H]2N1C(=O)Nc1ccc(C)c(C)c1 | 707 |
| Cc1cc2[nH]c(C(=O)Nc3ccc(Cl)cc3F)c(CN3CCOCC3)c2s1 | 759 |
| O=C(NC1CCCC1)c1nc(C(=O)N2CCN(c3ccccc3F)CC2)cs1 | 940 |
| Brc1ccc(-c2noc(Cc3nc(-c4ccccc4)cs3)n2)cc1 | 1350 |

More lines, now with the values ahead:

| RP-LC retention time [s] | Compound |
| --- | --- |
| 802 | Cc1cccc(NC(=O)C2CCCN(S(=O)(=O)c3c[nH]c(C(=O)N4CCCC4)c3)C2)c1C (centres undefined) |
| 621 | CCc1ccc2nc(NCc3ccccn3)sc2c1 |
| 676 | O=S(=O)(c1cccc(F)c1)N1CC(c2noc(C3CCCN3CC3CC3)n2)C1 (centres undefined) |
| 815 | O=C(NCC(O)(c1ccccc1)C(F)(F)F)c1cccs1 (centres undefined) |
| 891 | CCCN1C(=O)c2c(C(=O)NCCc3ccccc3)ncn2CC1(C)C(=O)NCCC(C)C (centres undefined) |
| 1100 | CSc1cccc(NC(=O)Cn2c(C)nc3c(sc4nc(-c5ccccc5)ccc43)c2=O)c1 |
| 595 | O=C(O)CNS(=O)(=O)c1cccc2nsnc12 |
| 1150 | Cc1cccc(-c2nsc(SCC(=O)N3CCc4ccccc43)n2)c1 |
| 723 | CS(=O)(=O)NCCS(=O)(=O)N1CCN(c2ccccc2F)CC1 |
| 615 | CCn1c(=O)c(SCC(=O)NCCCN2CCCC(C)C2)nc2ccccc21 (centres undefined) |
| 620 | Cc1cccc(-n2nnc(C(=O)O)c2-c2ccncc2)c1 |
| 610 | COC(=O)c1c(NCC(C)O)c2cccc(Cl)c2[nH]c1=O (centres undefined) |
| 1140 | CCOC(=O)c1sc(NC(=O)c2ccc([N+](=O)[O-])cc2)nc1-c1ccccc1 |
| 893 | Cc1ccc(C)c(CSc2nnc3c(S(=O)(=O)N4CCCC4)cccn23)c1 |
| 764 | COC(=O)c1ncn2c1C(=O)N(Cc1cccc(Br)c1)C(C)(C(=O)NC1CCCC1)C2 (centres undefined) |
| 663 | CN(C)C(CNC(=O)c1cc(-c2ccccc2)on1)c1cccs1 (centres undefined) |
| 772 | CCC(C)NS(=O)(=O)c1ccc(-c2n[nH]c(C)c2C)o1 (centres undefined) |
| 972 | CN(C)S(=O)(=O)N(CC(=O)Nc1ccccc1C(F)(F)F)c1ccccc1 |
| 862 | O=C(Cn1cccc1-c1nnc(C2CCC2)o1)Nc1ccccc1 |
| 777 | CC(C)CCNC(=O)CCSC1CCc2ccccc2NC1=O (centres undefined) |
| 653 | Cn1cnc(S(=O)(=O)NCCC2CCN(C(=O)c3ccccc3)CC2)c1 |
| 719 | Nc1ccc(S(=O)(=O)Nc2cnc3c(Cl)cccc3n2)cc1 |
| 1060 | CCOc1ccccc1NC(=O)C(=O)Nc1ccc([N+](=O)[O-])cc1 |
| 994 | Cc1cccc(NC(=O)Nc2ccc3c(c2)CCN3S(=O)(=O)c2ccccc2)c1 |
| 643 | CCS(=O)(=O)N1CCC(Cc2nncn2Cc2ccccc2)C1 (centres undefined) |
| 792 | CC(C)S(=O)(=O)c1cc2c(cc1NC(=O)c1c(F)cccc1F)n(C)c(=O)n2C |
| 793 | O=C(NCCOc1ccc(F)cc1)c1cc(-c2cccs2)n(C2CCS(=O)(=O)C2)n1 (centres undefined) |
| 655 | CCCCN(C)C(=O)Cn1c(CN(C)C(=O)c2ccco2)nc2ccccc21 |
| 641 | Cc1ccc(C)c2sc(NCc3ccccn3)nc12 |
| 854 | CCc1nc(OCC(=O)Nc2cc(F)ccc2F)c2ccccc2n1 |
